Several values for one entry are separate records, joined by “and”; a condition that tells them apart may be missing. Identical values can stand only once. Inconclusive results and toxic doses are left out. Cut-off read from the data, not from the text of the source: active = T/C of 150% or more; inactive = T/C below 125%.
Tested on: L1210 leukemia ip in BDF1 mice, survival T/C
Experiment: NCI In Vivo Anticancer Drug Screen. Data for tumor model L1210 Leukemia (intraperitoneal) in B6D2F1 (BDF1) mice
Conditions: endpoint: mean survival time, higher = longer survival
Summary of the method: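 Survival endpoint. Drug-treated group vs vehicle group, expressed as T divided by C. Tumor passaged by transplantation.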

[1] = dose: 50.0 mg/kg/injection, schedule: Q01DX009 (ip), vehicle: Klucel (hydroxypropylcellulose) (HPC)
[2] = dose: 100.0 mg/kg/injection, schedule: Q01DX009 (ip), vehicle: Klucel (hydroxypropylcellulose) (HPC)
[3] = dose: 100.0 mg/kg/injection, schedule: Q04DX003 (ip), vehicle: Klucel (hydroxypropylcellulose) (HPC)
[4] = dose: 200.0 mg/kg/injection, schedule: Q01DX009 (ip), vehicle: Klucel (hydroxypropylcellulose) (HPC)
[5] = dose: 200.0 mg/kg/injection, schedule: Q04DX003 (ip), vehicle: Klucel (hydroxypropylcellulose) (HPC)
[6] = dose: 400.0 mg/kg/injection, schedule: Q04DX003 (ip), vehicle: Klucel (hydroxypropylcellulose) (HPC)
[7] = dose: 50.0 mg/kg/injection, schedule: Q04DX003 (ip), vehicle: Klucel (hydroxypropylcellulose) (HPC)
[8] = dose: 75.0 mg/kg/injection, schedule: Q01DX001 (ip), vehicle: saline
[9] = dose: 400.0 mg/kg/injection, schedule: Q01DX009 (ip), vehicle: Klucel (hydroxypropylcellulose) (HPC)
[10] = dose: 25.0 mg/kg/injection, schedule: Q04DX003 (ip), vehicle: saline
[11] = dose: 50.0 mg/kg/injection, schedule: Q04DX003 (ip), vehicle: saline
[12] = dose: 25.0 mg/kg/injection, schedule: Q01DX009 (ip), vehicle: saline

Measured: T/C

N#C/C(=C\c1cccc2ccccc12)c1ccc(Cl)cc1
inactive: dose: 87.5 mg/kg/injection, schedule: Q01DX009 (ip), vehicle: Klucel (hydroxypropylcellulose) (HPC) 95 % of control | dose: 175.0 mg/kg/injection, schedule: Q01DX009 (ip), vehicle: Klucel (hydroxypropylcellulose) (HPC) 96 % of control | dose: 350.0 mg/kg/injection, schedule: Q01DX009 (ip), vehicle: Klucel (hydroxypropylcellulose) (HPC) 97 % of control

O=C(O)C1CCCN(C(=O)OCc2ccccc2)C1 (centres undefined)
inactive: [1] 97 % of control | [2] 100 % of control | [3] 90 % of control | [4] 97 % of control | [5] 90 % of control | [6] 97 % of control

CN(C1CCCCC1)C1CCCCC1
inactive: dose: 6.25 mg/kg/injection, schedule: Q01DX009 (ip), vehicle: Klucel (hydroxypropylcellulose) (HPC) 100 % of control | dose: 12.5 mg/kg/injection, schedule: Q01DX009 (ip), vehicle: Klucel (hydroxypropylcellulose) (HPC) 91 % of control | dose: 25.0 mg/kg/injection, schedule: Q01DX009 (ip), vehicle: Klucel (hydroxypropylcellulose) (HPC) 96 % of control and 107 % of control | dose: 25.0 mg/kg/injection, schedule: Q04DX003 (ip), vehicle: Klucel (hydroxypropylcellulose) (HPC) 97 % of control | [7] 102 % of control | [8] 108 % of control | [3] 97 % of control | dose: 150.0 mg/kg/injection, schedule: Q01DX001 (ip), vehicle: saline 109 % of control

Cc1nc(Br)c([N+](=O)[O-])[nH]1
inactive: dose: 100.0 mg/kg/injection, schedule: Q01DX001 (ip), vehicle: saline with Tween-80 95 % of control | dose: 200.0 mg/kg/injection, schedule: Q01DX001 (ip), vehicle: saline with Tween-80 114 % of control | dose: 400.0 mg/kg/injection, schedule: Q01DX001 (ip), vehicle: saline with Tween-80 97 % of control

O=C(C(Cl)(Cl)CO)C(Cl)(Cl)CO
inactive: dose: 100.0 mg/kg/injection, schedule: Q01DX001 (ip), vehicle: saline 91 % of control | dose: 200.0 mg/kg/injection, schedule: Q01DX001 (ip), vehicle: saline 94 % of control | dose: 400.0 mg/kg/injection, schedule: Q01DX001 (ip), vehicle: saline 92 % of control

Cc1ccc2c(c1)C(=O)CCS2
inactive: [2] 107 % of control | [4] 100 % of control | [9] 102 % of control

Cc1ccc(S(=O)(=O)N(C)c2ccc(I)c(Cl)c2Cl)cc1
inactive: [3] 102 % of control | [5] 96 % of control | [6] 98 % of control

CCN(CC)C(=S)SCC(=O)O
inactive: dose: 100.0 mg/kg/injection, schedule: Q04DX003 (ip), vehicle: other 101 % of control | dose: 200.0 mg/kg/injection, schedule: Q04DX003 (ip), vehicle: other 98 % of control | dose: 400.0 mg/kg/injection, schedule: Q04DX003 (ip), vehicle: other 98 % of control

C#CC(N)=O
inactive: dose: 3.0 mg/kg/injection, schedule: Q01DX009 (ip), vehicle: saline 100 % of control | dose: 6.0 mg/kg/injection, schedule: Q01DX009 (ip), vehicle: saline 96 % of control | dose: 12.0 mg/kg/injection, schedule: Q01DX009 (ip), vehicle: saline 94 % of control | [10] 107 % of control | [11] 106 % of control | [8] 107 % of control

O=C(Oc1ccc2ccc(=O)oc2c1)N(CCCl)CCCl
inactive: [1] 97 % of control | [2] 90 % of control | [4] 101 % of control

Nc1nc(N)c2c(n1)CN(Cc1ccccc1)C2
inactive: dose: 25.0 mg/kg/injection, schedule: Q01DX001 (ip), vehicle: carboxymethylcellulose (CMC) 103 % of control | dose: 50.0 mg/kg/injection, schedule: Q01DX001 (ip), vehicle: carboxymethylcellulose (CMC) 103 % of control

Nc1ccc(F)c(Cl)c1
inactive: dose: 100.0 mg/kg/injection, schedule: Q04DX002 (ip), vehicle: saline 121 % of control | dose: 200.0 mg/kg/injection, schedule: Q04DX002 (ip), vehicle: saline 98 % of control | dose: 400.0 mg/kg/injection, schedule: Q04DX002 (ip), vehicle: saline 105 % of control

C(Sc1ccccc1)=C(Sc1ccccc1)Sc1ccccc1
inactive: dose: 6.25 mg/kg/injection, schedule: Q01DX009 (ip), vehicle: other 94 % of control | dose: 125.0 mg/kg/injection, schedule: Q01DX009 (ip), vehicle: other 105 % of control | dose: 250.0 mg/kg/injection, schedule: Q01DX009 (ip), vehicle: other 98 % of control

c1ccc([P+](Cc2nc3ccccc3[nH]2)(c2ccccc2)c2ccccc2)cc1
inactive: [12] 92 % of control | [10] 97 % of control | [1] 102 % of control | [11] 92 % of control | [2] 100 % of control | dose: 100.0 mg/kg/injection, schedule: Q04DX003 (ip), vehicle: saline 94 % of control

CC(C)/C(=C\c1ccccc1)C(=O)c1ccccc1
inactive: dose: 100.0 mg/kg/injection, schedule: Q04DX003 (ip), vehicle: saline with Tween-80 104 % of control | dose: 200.0 mg/kg/injection, schedule: Q04DX003 (ip), vehicle: saline with Tween-80 110 % of control

Cc1ccc(C(C)C)c2sc(=N)oc12
inactive: [3] 104 % of control | [5] 103 % of control | [6] 98 % of control

CC1CC(C)S(=O)(=O)C1 (centres undefined)
inactive: dose: 12.5 mg/kg/injection, schedule: Q01DX009 (ip), vehicle: saline 94 % of control | dose: 12.5 mg/kg/injection, schedule: Q04DX003 (ip), vehicle: saline 97 % of control | dose: 25.0 mg/kg/injection, schedule: Q01DX001 (ip), vehicle: saline 104 % of control | [12] 108 % of control | [10] 95 % of control | dose: 50.0 mg/kg/injection, schedule: Q01DX001 (ip), vehicle: saline 104 % of control | dose: 50.0 mg/kg/injection, schedule: Q01DX009 (ip), vehicle: saline 91 % of control | [11] 93 % of control

Oc1ccccc1CNc1ccc(Br)cc1
inactive: dose: 100.0 mg/kg/injection, schedule: Q04DX003 (ip), vehicle: gum acacia 95 % of control | dose: 200.0 mg/kg/injection, schedule: Q04DX003 (ip), vehicle: gum acacia 95 % of control | dose: 400.0 mg/kg/injection, schedule: Q04DX003 (ip), vehicle: gum acacia 93 % of control

IC1CCC2OC1CCC2I (centres undefined)
inactive: dose: 100.0 mg/kg/injection, schedule: Q04DX002 (ip), vehicle: saline with Tween-80 94 % of control | dose: 200.0 mg/kg/injection, schedule: Q04DX002 (ip), vehicle: saline with Tween-80 94 % of control | dose: 400.0 mg/kg/injection, schedule: Q04DX002 (ip), vehicle: saline with Tween-80 109 % of control

O=[N+]([O-])c1ccc(CC(O)c2ccccc2)cc1 (centres undefined)
inactive: [7] 105 % of control | [2] 111 % of control | [3] 102 % of control | [4] 107 % of control | [5] 105 % of control | [9] 103 % of control | [6] 105 % of control

O=C(O)CN1C(=O)CN=C(c2ccccn2)c2cc(Cl)ccc21
inactive: [2] 99 % of control | [3] 100 % of control | [4] 100 % of control | [5] 100 % of control | [9] 97 % of control | [6] 97 % of control

CC1=CC2C(C(C)C)CC1C1C(=O)OC(=O)C21 (centres undefined)
inactive: dose: 100.0 mg/kg/injection, schedule: Q04DX002 (ip), vehicle: Klucel (hydroxypropylcellulose) (HPC) 102 % of control | dose: 200.0 mg/kg/injection, schedule: Q04DX002 (ip), vehicle: Klucel (hydroxypropylcellulose) (HPC) 100 % of control

Source: PubChem BioAssay AID248 (DTP/NCI, 2004)
